The values below come from PubChem BioAssay AID328 (DTP/NCI, 2004).

“And” between values parts separate entries of the source, which are not always exact repeats. Equal values may be shown once. Toxic doses and inconclusive results are not listed.

For this test, the system named is BDF1 mice, P388 leukemia ip, median survival T/C. Put plainly: NCI In Vivo Anticancer Drug Screen. Data for tumor model P388 Leukemia (intraperitoneal) in B6D2F1 (BDF1) mice. The settings on record: endpoint: median survival time, higher = longer survival. The essentials:
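Transplantable tumour in mice; compound vs vehicle dosing; survival scored; ratio of treated to control reported.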

Setting [1] is: dose: 100.0 mg/kg/injection, schedule: Q01DX009 (ip), vehicle: saline with Tween-80.
[2] abbreviates: dose: 200.0 mg/kg/injection, schedule: Q01DX009 (ip), vehicle: saline with Tween-80.
The mark [3] stands for this setting: dose: 400.0 mg/kg/injection, schedule: Q01DX009 (ip), vehicle: saline with Tween-80.
Where [4] appears, read: dose: 100.0 mg/kg/injection, schedule: Q04DX003 (ip), vehicle: saline with Tween-80.
[5] abbreviates: dose: 25.0 mg/kg/injection, schedule: Q01DX009 (ip), vehicle: saline.
Where [6] appears, read: dose: 50.0 mg/kg/injection, schedule: Q01DX009 (ip), vehicle: saline.
Where [7] appears, read: dose: 100.0 mg/kg/injection, schedule: Q01DX009 (ip), vehicle: saline.
Where [8] appears, read: dose: 100.0 mg/kg/injection, schedule: Q04DX003 (ip), vehicle: saline.
The mark [9] stands for this setting: dose: 200.0 mg/kg/injection, schedule: Q01DX009 (ip), vehicle: saline.
Setting [10] is: dose: 200.0 mg/kg/injection, schedule: Q04DX003 (ip), vehicle: saline.
Setting [11] is: dose: 200.0 mg/kg/injection, schedule: Q04DX003 (ip), vehicle: saline with Tween-80.
The mark [12] stands for this setting: dose: 400.0 mg/kg/injection, schedule: Q04DX003 (ip), vehicle: saline with Tween-80.
Setting [13] is: dose: 400.0 mg/kg/injection, schedule: Q04DX003 (ip), vehicle: saline.

For the molecule `O=C1CC(=O)N(c2ccccc2)C(=O)N1`, the T/C is 94 % of control under setting [1], 88 % of control under setting [2] and 106 % of control under setting [3].
As to `CCO/C=C1\SC(=S)N(c2cccc(OC)c2)C1=O`, under setting [4], the T/C was 122 % of control.
On to `NN1CCCC1`, for which the T/C by setting is: under setting [5], 100 % of control; under setting [6], 100 % of control; under setting [7], 86 % of control and 90 % of control and 100 % of control; under setting [8], 104 % of control; under setting [9], 100 % of control; under setting [10], 113 % of control.
Turning to `O=C(Nc1cccc2ccccc12)N1c2ccccc2SC12CCCC2`, under setting [1], the T/C is 91 % of control.
As to `Cc1c(Cl)cccc1NC(=O)c1ccccc1C(=O)O`, the T/C is 91 % of control (dose: 100.0 mg/kg/injection, schedule: Q04DX003 (ip), vehicle: Klucel (hydroxypropylcellulose) (HPC)); 95 % of control (dose: 200.0 mg/kg/injection, schedule: Q04DX003 (ip), vehicle: Klucel (hydroxypropylcellulose) (HPC)); 100 % of control (dose: 400.0 mg/kg/injection, schedule: Q04DX003 (ip), vehicle: Klucel (hydroxypropylcellulose) (HPC)).
On to `OC1OC(COC(c2ccccc2)(c2ccccc2)c2ccccc2)C(O)C(O)C1O` (stereo not drawn), for which the T/C runs as follows: (dose: 10.0 mg/kg/injection, schedule: Q01DX009 (ip), vehicle: saline) 123 % of control; (dose: 12.5 mg/kg/injection, schedule: Q01DX009 (ip), vehicle: saline) 88 % of control; (dose: 20.0 mg/kg/injection, schedule: Q01DX009 (ip), vehicle: saline) 108 % of control; under setting [5], 104 % of control and 115 % of control; (dose: 40.0 mg/kg/injection, schedule: Q01DX009 (ip), vehicle: saline) 114 % of control; under setting [6], 101 % of control and 123 % of control. The T/C by setting is: (dose: 80.0 mg/kg/injection, schedule: Q01DX009 (ip), vehicle: saline) 107 % of control; under setting [7], 90 % of control and 104 % of control and 105 % of control; (dose: 100.0 mg/kg/injection, schedule: Q01DX009 (ip), vehicle: water) 100 % of control; under setting [4], 110 % of control; under setting [8], 90 % of control; (dose: 100.0 mg/kg/injection, schedule: Q04DX003 (ip), vehicle: water) 105 % of control. For the same molecule, the T/C was 105 % of control (dose: 200.0 mg/kg/injection, schedule: Q01DX009 (ip), vehicle: water); 105 % of control under setting [11]; 95 % of control under setting [10]; 110 % of control (dose: 200.0 mg/kg/injection, schedule: Q04DX003 (ip), vehicle: water); 105 % of control (dose: 400.0 mg/kg/injection, schedule: Q01DX009 (ip), vehicle: water); 110 % of control under setting [12]. In addition, the T/C (dose: 400.0 mg/kg/injection, schedule: Q04DX003 (ip), vehicle: water) was 110 % of control.
`CC(C)(C)N1CCOCC1`: the T/C (dose: 12.5 mg/kg/injection, schedule: Q04DX003 (ip), vehicle: saline) is 109 % of control; the T/C under setting [5] is 95 % of control; the T/C (dose: 25.0 mg/kg/injection, schedule: Q04DX003 (ip), vehicle: saline) is 95 % of control; the T/C under setting [6] is 86 % of control; the T/C (dose: 50.0 mg/kg/injection, schedule: Q04DX003 (ip), vehicle: saline) was 90 % of control; the T/C (dose: 75.0 mg/kg/injection, schedule: Q04DX003 (ip), vehicle: saline) is 105 % of control. The T/C (dose: 115.0 mg/kg/injection, schedule: Q04DX003 (ip), vehicle: saline) is 120 % of control.
With `Cc1c[nH]c(=O)[nH]c1=O`, the T/C is, setting by setting: (dose: 390.0 mg/kg/injection, schedule: Q04DX003 (ip), vehicle: saline with Tween-80) 98 % of control; (dose: 390.0 mg/kg/injection, schedule: Q## X003 (ip), vehicle: saline with Tween-80) 98 % of control; (dose: 520.0 mg/kg/injection, schedule: Q04DX003 (ip), vehicle: saline with Tween-80) 93 % of control; (dose: 520.0 mg/kg/injection, schedule: Q## X003 (ip), vehicle: saline with Tween-80) 93 % of control.
In the case of `COC1=C(OC)C(=O)C2=C(OCCO2)C1=O`, where the note is “dose: 100.0 mg/kg/injection, schedule: Q01DX001 (ip), vehicle: saline with Tween-80”, the T/C was 104 % of control.
For the molecule `C=CCSc1nc(N)nc2c1ncn2C1CC(O)C(CO)O1` (stereo not drawn), the T/C was 102 % of control under setting [5]; 114 % of control and 111 % of control under setting [6]; 123 % of control and 95 % of control under setting [7]; 104 % of control under setting [8]; 181 % of control under setting [2]; 122 % of control and 94 % of control and 100 % of control under setting [10]. The T/C (dose: 300.0 mg/kg/injection, schedule: Q01DX009 (ip), vehicle: saline with Tween-80) was 154 % of control; the T/C (dose: 400.0 mg/kg/injection, schedule: Q01DX009 (ip), vehicle: saline) is 107 % of control; the T/C under setting [13] was 99 % of control and 104 % of control.
Consider `COc1cc(/C=N\NC(=O)c2cccc(Cl)c2)ccc1N(CCCl)CCCl`, for which the T/C is, setting by setting: (dose: 264.0 mg/kg/injection, schedule: Q04DX003 (ip), vehicle: saline with Tween-80) 173 % of control; under setting [12], 234 % of control; (dose: 600.0 mg/kg/injection, schedule: Q04DX003 (ip), vehicle: saline with Tween-80) 260 % of control.
As for `CC1=CP(=O)(O)CC1`, the T/C is 95 % of control under setting [6] and 95 % of control under setting [7].
As to `COc1c2c(c3c(c1OC)c(=O)c1ccccc1n3C)OCO2`, the T/C (dose: 45.0 mg/kg/injection, schedule: Q01DX010 (ip), vehicle: carboxymethylcellulose (CMC)) was 90 % of control; the T/C (dose: 90.0 mg/kg/injection, schedule: Q01DX010 (ip), vehicle: carboxymethylcellulose (CMC)) is 104 % of control; the T/C (dose: 180.0 mg/kg/injection, schedule: Q01DX010 (ip), vehicle: carboxymethylcellulose (CMC)) was 95 % of control.
Take `CS(=O)(=O)OCCCl`: the T/C is, setting by setting: (dose: 18.8 mg/kg/injection, schedule: Q01DX010 (ip), vehicle: saline) 105 % of control and 120 % of control; (dose: 37.5 mg/kg/injection, schedule: Q01DX010 (ip), vehicle: saline) 100 % of control and 110 % of control; (dose: 75.0 mg/kg/injection, schedule: Q01DX010 (ip), vehicle: saline) 100 % of control.
Consider `CCOC(=O)C(Br)C(Br)c1ccccc1` (stereo not drawn), for which the T/C reads like this: (dose: 50.0 mg/kg/injection, schedule: Q01DX001 (ip), vehicle: saline) 100 % of control; (dose: 50.0 mg/kg/injection, schedule: Q04DX003 (ip), vehicle: saline with Tween-80) 91 % of control; (dose: 100.0 mg/kg/injection, schedule: Q01DX001 (ip), vehicle: saline) 90 % of control; under setting [4], 108 % of control; (dose: 200.0 mg/kg/injection, schedule: Q01DX001 (ip), vehicle: saline) 118 % of control; under setting [11], 112 % of control.
As to `Cc1nc2ncn(C)c2nc1C`, the T/C is 105 % of control (dose: 25.0 mg/kg/injection, schedule: Q01DX001 (ip), vehicle: saline sonified); 100 % of control (dose: 50.0 mg/kg/injection, schedule: Q01DX001 (ip), vehicle: saline sonified); 105 % of control (dose: 100.0 mg/kg/injection, schedule: Q01DX001 (ip), vehicle: saline sonified).
On to `CC1(C)c2ccccc2C(C)(C(Cl)(Cl)Cl)c2ccc(Cl)cc21` (stereo not drawn), for which the T/C is, setting by setting: (dose: 50.0 mg/kg/injection, schedule: Q01DX009 (ip), vehicle: saline with Tween-80) 96 % of control; under setting [1], 99 % of control; under setting [2], 92 % of control; under setting [3], 97 % of control.
As to `Cc1ccc2c(c1)C(=O)CC=C(C(=O)O)N2`, the T/C reads like this: under setting [8], 100 % of control; under setting [2], 87 % of control; under setting [10], 110 % of control; under setting [13], 105 % of control.
Turning to `COC1C(=[N+]=[N-])C(=O)NC(=O)N1C` (stereo not drawn), under “dose: 12.5 mg/kg/injection, schedule: Q04DX003 (ip), vehicle: water”, the T/C is 120 % of control.
With `C[C@]12CCC(=O)C=C1CC[C@H]1[C@@H]3C[C@@H](O)[C@](O)(C(=O)CO)[C@@]3(C)C[C@H](O)[C@@]12F`, the T/C is 108 % of control under setting [7]; 108 % of control under setting [8]; 87 % of control under setting [9]; 116 % of control under setting [10]; 100 % of control under setting [13].
